Experimental findings from US20250281449A1, “NITROGEN-CONTAINING ANALOGS OF SALINOMYCIN FOR USE IN MULTIPLE MYELOMA (MM)” (Centre National de la Recherche Scientifique, priority 2021, published 2025) are described below.

Holding throughout (type): cell-based, human
In test [1] the test system is XG-1, XG-7 and OPM-2 cells. The test is described as follows: Cell cycle analysis (BrdU incorporation/DAPI, flow cytometry). The settings on record: IC50 Ironomycin, 72 hours. As for the experimental part:
XG-1, XG-7 and OPM-2 cells were incubated with vehicle or with IC50 Ironomycin for 72 hours. Cell cycle was analyzed using flow cytometry, S phase was stained by an anti-BrdU antibody after BrdU incorporation and DNA content was strained by 4′,6-diamidino-2-phénylindole (DAPI). Histograms represent the mean percentage and SD of each cell cycle phase of three independent experiments. * and ** indicate a significant difference of P<0.05 and P<0.01, respectively with paired student t-test.
The cell cycle progression was studied by flow cytometry using the Apoptosis, DNA Damage, and Cell Proliferation Kit (562253, Becton Dickinson). Briefly, cells were labeled with bromodeoxyuridine (BrdU), an analog of the DNA precursor thymidine that can be incorporated into newly synthesized DNA and detected with an antibody against BrdU to measure cell proliferation. After this labeling, the cells were fixed, permeabilized and treated with DNase to expose the BrdU epitopes. Following this treatment, cells were simultaneously stained with fluorochrome-labeled anti-BrdU, anti-cleaved Poly A DP-ribose polymerase 1 (PARP), anti-H2AX phosphorylated at serine 139. They were also stained with DAPI to determine DNA content. Finally, cells were resuspended in staining buffer and analyzed by flow cytometry (Fortessa, Becton Dickinson).

The subject of test [2] is Phospho-H2A.X (S139). The test is described as follows: DNA damage response, Phospho-H2A.X (S139) western blot. Particulars: IC50 and 200 nM, 24H. As for the experimental part: Cells were treated with iron chelators (80 μM Deferasirox), and Ironomycin (IC50 and 200 nM) during 24H. Protein levels of Phospho-H2A.X (S139) were analyzed by western blot and normalized by the histone 3 protein level.
(§1) The total cell lysates were obtained with RIPA 1× lysis buffer (#9806, Cell Signaling®) according with the supplier recommendations.
(§2) Protein lysates migrate on 10% polyacrylamide gel (NP-0301, Novex, Life Technologies®), in MOPS 1× running buffer (NP0001, Novex, Life Technologies®) or MES 1× running buffer NP-0002, Novex, Life Technologies®) and proteins are transferred to nitrocellulose membrane (1B301001, I-Blot Transfert Starck, NuPAGE, Life Technologies®). The primary antibodies mouse-anti-phospho-Histone H2A.X (Ser139) clone JBW301 ( 1/1000, Merck Millipore), anti-H3K36me3 (#ab9050, abcam®), anti-H3K27me3 (#9733, Cell Signaling®), anti-MMSET (#65127, Cell Signaling® et ab75359, abcam), anti-MYC (#5605, Cell Signaling®) were incubated in TBS-Tween 20 0.1% (Tris-Buffered Saline, pH 7.4) with 5% non-fat milk or Bovine serum albumin (Sigma-Aldrich, A7906). Protein levels are objectified by labeling with an anti-α-tubulin mouse monoclonal antibody (Sigma, T9026, St Louis, MO, USA 1/1000) or anti-Histone 3 (ab18521, abcam). […] Quantification of protein levels was performed with Image J® software (National Institutes of Health, Bethesda, MD, USA).

Test [3] deals with MMSET (isoforms I and II). The test is described as follows: Western blot of MMSET protein level. Particulars: MM cell lines with t(4; 14) translocation, 24H. As for the experimental part: (§3) Cells were treated with iron chelators (80 μM Deferasirox), and Ironomycin (IC50 and 200 nM) during 24H. Protein levels of MMSET (isoforms I and II), MYC, H3K36me3 and H3K27me3 were analyzed by western blot. MMSET (isoforms I and II) and MYC signal were normalized by α-tubulin protein level, H3K36me3 and H3K27me3 signal were normalized by total histone 3 protein level.
as §1
as §2, with “A7906).” for “A7906). Protein levels are objectified by labeling with an anti-α-tubulin mouse monoclonal antibody (Sigma, T9026, St Louis, MO, USA 1/1000) or anti-Histone 3 (ab18521, abcam).”

In test [4] the test system is MYC. In words: Western blot of MYC protein level. Particulars: 24H. As for the experimental part:
as §3, §1
as §2, with “A7906).” for “A7906). Protein levels are objectified by labeling with an anti-α-tubulin mouse monoclonal antibody (Sigma, T9026, St Louis, MO, USA 1/1000) or anti-Histone 3 (ab18521, abcam).”

The subject of test [5] is primary MM cells. The test is described as follows: Assay on primary MM cells of patients (flow cytometry). The settings on record: n=5, with IL-6. As for the experimental part: Primary MM cells were treated with Ironomycin (A) or AM-23 (B) and incubated during 96H with IL-6. The toxicity on MM cells and non-MM cells was analyzed by flow cytometry and expressed in % of control.
Bone marrow samples were collected after patients' written informed consent in accordance with the Declaration of Helsinki and institutional research board approval from Montpellier University hospital. Cells are obtained from […] of 5 patients with MM. Cells are obtained by density gradient separation and qualified by Flow cytometry.
Cells are cultured in Gibco® RPMI-1640 (Glutamax) medium (#6187-010) with 10% FBS at a density of 0.5×10^6 Cell/mL with 2 ng/mL of interleukin-6. Cells are seeded 24H after thawing and treated with various compounds during 72H.
Total cells were counted with trypan blue and stained with the panel CD38-APC, CD138-PE (Beckman coulter) and analyzed by flow cytometry (Fortessa cytometer, BD Pharmigen). Tumorous MM cells were gated on CD38+ and CD138+.
For orientation: A flow cytometer gives signals particle by particle.

In test [6] the test system is XG2 melphalan resistant (XG2 Melph R) cell line. The test is described as follows: Drug combination concentration matrix, viability by ATP quantification, Bliss synergy. Particulars: melphalan resistant cell line XG2 MeIR, 96 h. As for the experimental part: XG-7 or XG2 WT (XG2 neg) or XG2 melphalan resistant (XG2 Melph R) cell lines were respectively treated with increasing concentrations of ironomycin combined with melphalan during 96 h and cell viability was tested by ATP quantification to obtain the viability matrix. The synergy matrix was calculated as described in Material and Methods.
HMCL cell lines were cultured for 4 days in 96-well flat-bottom microtiter plates in RPMI 1640 medium or DMEM medium, 10% or 20% FCS (control medium) in the presence of various compounds. The number of viable cells in culture was determined using the Cell Titer-Glo Luminescent Cell Viability Assay from Promega, Madison, WI, USA using a Centro LB 960 luminometer (Berthold Technologies, Bad Wildbad, Germany).
The interaction between the drugs tested in vitro was investigated with a concentration matrix test, in which increasing concentration of each single drug were assessed with all possible combinations of the other drugs. For each combination, the percentage of expected growing cells in the case of effect independence was calculated according to the Bliss equation (Combes et al., 2019): […]
where fuC is the expected fraction of cells unaffected by the drug combination in the case of effect independence, and fuA and fuB are the fractions of cells unaffected by treatment A and B, respectively. […]

On to `C#CCN[C@@H]1C=C[C@]2(O[C@H]([C@@H](CC)C(=O)[C@@H](C)[C@@H](O)[C@H](C)[C@@H]3O[C@@H]([C@@H](CC)C(=O)O)CC[C@@H]3C)[C@@H](C)C[C@H]2C)O[C@@]12CC[C@@](C)([C@H]1CC[C@](O)(CC)[C@H](C)O1)O2` [Ironomycin], for which the “proliferation of MM cells (cell cycle)” value in test [1] is “inhibition of proliferation of MM cells”. In addition, the “DNA double strand breaks” value in test [2] is reported as “DNA double strand breaks”. Moreover, in test [3], the “expression of MMSET” value is listed as “downregulates the expression of MMSET”. Moreover, the MYC protein expression entry in test [4] is “significant downregulation”. For the same compound, in test [5], the “toxicity on primary MM cells of patients” value was “validated the therapeutic interest”. The “interaction effect, combined with melphalan” value in test [6] is given as “remains synergistic”.
